In patent US11795460B2, “Compositions and methods for TTR gene editing and treating ATTR amyloidosis” (Intellia Therapeutics, Inc., priority 2017, dated 2023):

Test system: TTR
Assay: TTR editing in primary cyno hepatocytes electroporated with Spy Cas9 protein and dgRNAs (Tables 10, 11)
Format: cell-based, cynomolgus monkey
Conditions: Table 10; primary cyno hepatocytes electroporated with Spy Cas9 protein (RNP) and dgRNAs
Procedure: Primary liver hepatocytes. Primary human liver hepatocytes (PHH) and primary cynomolgus liver hepatocytes (PCH) (Gibco) were cultured per the manufacturer's protocol (Invitrogen, protocol 11.28.2012). In brief, the cells were thawed and resuspended in hepatocyte thawing medium with supplements (Gibco, Cat. CM7000) followed by centrifugation at 100 g for 10 minutes for human and 80 g for 4 minutes for cyno. The supernatant was discarded and the pelleted cells resuspended in hepatocyte plating medium plus supplement pack (Invitrogen, Cat. A1217601 and CM3000). Cells were counted and plated on Bio-coat collagen I coated 96-well plates (ThermoFisher, Cat. 877272) at a density of 33,000 cells/well for human or 60,000 cells/well for cyno (or 65,000 cells/well when assaying effects on TTR protein, described further below). Plated cells were allowed to settle and adhere for 6 or 24 hours in a tissue culture incubator at 37° C. and 5% CO2 atmosphere. After incubation cells were checked for monolayer formation and media was replaced with hepatocyte culture medium with serum-free supplement pack (Invitrogen, Cat. A1217601 and CM4000).
[…] formation was performed prior to electroporation or transfection of Spy Cas9 protein loaded with guide RNAs (RNPs) onto cells. For dual guide (dgRNAs), individual crRNA and trRNA was pre-annealed by mixing equivalent amounts of reagent and incubating at 95° C. for 2 min and cooling to room temperature. Single guide (sgRNAs) were boiled at 95° C. for 2 min and cooling to room temperature. The boiled dgRNA or sgRNA was incubated with Spy Cas9 protein in Optimem for 10 minutes at room temperature to form a ribonucleoprotein (RNP) complex.
For RNP electroporation into primary human and cyno hepatocytes, the cells are thawed and resuspended in Lonza electroporation Primary Cell P3 buffer at a concentration of 2500 cells per μL for human hepatocytes and 3500 cells per μL for cyno hepatocytes. A volume of 20 μL of resuspended cells and 5 μL of RNP are mixed together per guide. 20 μL of the mixture is placed into a Lonza electroporation plate. The cells were electroporated using the Lonza nucleofector with the preset protocol EX-147. Post electroporation, the cells are transferred into a Biocoat plate containing pre-warmed maintenance media and placed in a tissue culture incubator at 37° C. and 5% CO2.
Transfected cells were harvested post-transfection at 24, 48, or 72 hours. The genomic DNA was extracted from each well of a 96-well plate using 50 μL/well BuccalAmp DNA Extraction solution (Epicentre, Cat. QE09050) per manufacturer's protocol. All DNA samples were subjected to PCR and subsequent NGS analyses, as described herein.
To quantitatively determine the efficiency of editing at the target location in the genome, sequencing was utilized to identify the presence of insertions and deletions introduced by gene editing.
Primers were designed around the target site within the gene of interest (e.g. TTR), and the genomic area of interest was amplified.
Additional PCR was performed per the manufacturer's protocols (Illumina) to add chemistry for sequencing. The amplicons were sequenced on an Illumina MiSeq instrument. The reads were aligned to a reference genome (e.g., the human reference genome (hg38), the cynomologus reference genome (mf5), the rat reference genome (rn6), or the mouse reference genome (mm10)) after eliminating those having low quality scores. The resulting files containing the reads were mapped to the reference genome (BAM files), where reads that overlapped the target region of interest were selected and the number of wild type reads versus the number of reads which contain an insertion, substitution, or deletion was calculated.
The editing percentage (e.g., the “editing efficiency” or “percent editing” or “indel frequency”) is defined as the total number of sequence reads with insertions/deletions (“indels”) or substitutions over the total number of sequence reads, including wild type. […]

Sequence | Avg % Deletion [%] | Avg % Edit [%] | Avg % Insert [%]
AAGUGCCUUCCAGUAAGAUU (tested as dual guide RNA, chemistry not given here) [CR003368] | 0.26 | 18.56 | 18.30
GGCUGUCGUCACCAAUCCCA (tested as dual guide RNA, chemistry not given here) [CR003391] | 0.71 | 36.44 | 35.73
CCUCUGCAUGCUCAUGGAAU (tested as dual guide RNA, chemistry not given here) [CR003370] | 0.12 | 2.52 | 2.40
ACCUCUGCAUGCUCAUGGAA (tested as dual guide RNA, chemistry not given here) [CR003371] | 0.14 | 1.83 | 1.69
ACGUGUCUUCUCUACACCCA (tested as dual guide RNA, chemistry not given here) [CR005302] | 0.08 | 1.34 | 1.26
AAAUAGACACCAAAUCUUAC (tested as dual guide RNA, chemistry not given here) [CR003366] | 0.90 | 18.52 | 17.62
AAAGGCUGCUGAUGACACCU (tested as dual guide RNA, chemistry not given here) [CR003353] | 0.08 | 4.75 | 4.67
CCAGUCCAGCAAGGCAGAGG (tested as dual guide RNA, chemistry not given here) [CR003337] | 0.84 | 24.94 | 24.10
AUAGGAGUAGGGGCUCAGCA (tested as dual guide RNA, chemistry not given here) [CR003383] | 4.55 | 8.86 | 4.31
AUGCAGCUCUCCAGACUCAC (tested as dual guide RNA, chemistry not given here) [CR003358] | 1.46 | 20.47 | 19.01
AGUCCCUCAUUCCUUGGGAU (tested as dual guide RNA, chemistry not given here) [CR003392] | 0.38 | 7.02 | 6.63
AAAGUUCUAGAUGCUGUCCG (tested as dual guide RNA, chemistry not given here) [CR003346] | 0.09 | 1.91 | 1.82
UCUAGAACUUUGACCAUCAG (tested as dual guide RNA, chemistry not given here) [CR003345] | 22.19 | 52.92 | 30.74
UGGACUGGUAUUUGUGUCUG (tested as dual guide RNA, chemistry not given here) [CR003340] | 4.80 | 12.53 | 7.72
CUGGUAUUUGUGUCUGAGGC (tested as dual guide RNA, chemistry not given here) [CR003341] | 0.77 | 8.43 | 7.66
UUUGACCAUCAGAGGACACU (tested as dual guide RNA, chemistry not given here) [CR003344] | 1.91 | 35.72 | 33.81
UGUAGAAGGGAUAUACAAAG (tested as dual guide RNA, chemistry not given here) [CR003365] | 0.97 | 10.31 | 9.33
GUCACAGAAACACUCACCGU (tested as dual guide RNA, chemistry not given here) [CR005301] | 0.42 | 46.76 | 46.34

Sequence | Avg % Deletion [%] | Avg % Edit [%] | Avg % Insert [%]
UACUCACCUCUGCAUGCUCA (tested as dual guide RNA, chemistry not given here) [CR003372] | 0.32 | 2.15 | 1.83
CCCCUACUCCUAUUCCACCA (tested as dual guide RNA, chemistry not given here) [CR003385] | 4.12 | 30.96 | 26.84
GACGACAGCCGUGGUGGAAU (tested as dual guide RNA, chemistry not given here) [CR003388] | 0.22 | 6.81 | 6.59
GCAUGGGCUCACAACUGAGG (tested as dual guide RNA, chemistry not given here) [CR003362] | 0.22 | 4.59 | 4.36
GGAGUAGGGGCUCAGCAGGG (tested as dual guide RNA, chemistry not given here) [CR003382] | 2.33 | 10.86 | 8.54
AUACCAGUCCAGCAAGGCAG (tested as dual guide RNA, chemistry not given here) [CR003338] | 0.05 | 44.94 | 44.89
AUUGGUGACGACAGCCGUGG (tested as dual guide RNA, chemistry not given here) [CR003389] | 0.78 | 18.83 | 18.05
AGUGAGUCUGGAGAGCUGCA (tested as dual guide RNA, chemistry not given here) [CR003359] | 5.51 | 46.17 | 40.66
CCGUGGUGGAAUAGGAGUAG (tested as dual guide RNA, chemistry not given here) [CR003386] | 2.03 | 5.54 | 3.51
ACUGAGGAGGAAUUUGUAGA (tested as dual guide RNA, chemistry not given here) [CR003363] | 2.39 | 15.64 | 13.24
GUGAGUCUGGAGAGCUGCAU (tested as dual guide RNA, chemistry not given here) [CR003360] | 0.42 | 29.47 | 29.05
CUCUGCAUGCUCAUGGAAUG (tested as dual guide RNA, chemistry not given here) [CR003369] | 0.25 | 1.53 | 1.28
CUGAGGAGGAAUUUGUAGAA (tested as dual guide RNA, chemistry not given here) [CR003364] | 5.35 | 19.62 | 14.27
GCUGCAUGGGCUCACAACUG (tested as dual guide RNA, chemistry not given here) [CR003361] | 0.08 | 4.53 | 4.46
GCCGUGGUGGAAUAGGAGUA (tested as dual guide RNA, chemistry not given here) [CR003387] | 0.17 | 4.72 | 4.55
CAUUGAUGGCAGGACUGCCU (tested as dual guide RNA, chemistry not given here) [CR003347] | 0.25 | 72.41 | 72.15
ACACAAAUACCAGUCCAGCA (tested as dual guide RNA, chemistry not given here) [CR003339] | 4.02 | 8.95 | 4.93
